# Results: US9993494B2, “Compositions and methods for treating fibrotic disease” (eFFECTOR Therapeutics, Inc., priority 2014, dated 2018)
# System: normal human lung fibroblasts
# Test: Ribosomal profiling: translational efficiency in TGFβ-treated fibroblasts
# Type: cell-based
# Method: Ribosomal profiling allows for measurement of changes in transcription and translation on a genome-wide basis accompanying TGFβ-dependent transformation of fibroblasts to myofibroblasts. Ribosomal profiles of the TGFβ-treated fibroblasts from Example 1 (about 6×10^6 cells/10 cm plate) were prepared and analyzed for changes in translational efficiencies with respect to potential disease-associated cellular changes accompanying this TGFβ-induced transformation.
# Briefly, cells were washed with cold PBS supplemented with cycloheximide and lysed with 1× mammalian cell lysis buffer for 10 minutes on ice. Lysates were clarified by centrifugation for 10 minutes at 14,000 rpm and supernatants were collected. Cell lysates were processed to generate ribosomal protected fragments and total mRNA according to the instructions included with the ARTseq Ribosome Profiling Kit (Illumina, San Diego, Calif.). Sequencing of total RNA (RNA) and of ribosome-protected fragments of RNA (RPF) was carried out using RNA-Seq methodology according to the manufacturer's instructions (Illumina). To analyze the ribosomal profiles, RNA-Seq reads were processed with tools from the FASTX-Toolkit (fastq_quality_trimmer, fastx_clipper and fastx_trimmer). Unprocessed and processed reads were evaluated for a variety of quality measures using FastQC, and processed reads were mapped to the human genome using TopHat (see, e.g., Trapnell et al., Bioinformatics 25:1105, 2009). Gene-by-gene assessment of the number of fragments strictly and uniquely mapping to the coding region of each gene was conducted using HTSeq-count, a component of the HTSeq package. […] Genes with low counts in either RPF or RNA were excluded from differential analyses. Pathway and network analyses of differential data were conducted using Ingenuity Pathway Analysis (IPA).
substance,measurement,setting,value
TGFβ,Log2 TE KIAA0408,"ENSG00000189367, 5 replicates",−1.283
same,Log2 TE ZBTB44,"ENSG00000196323, 5 replicates",−1.222
same,Log2 TE NACA,"ENSG00000196531, 5 replicates",1.083
same,change in translational profile of NACA caused by TGFβ,"ENSG00000196531, Control vs. TGFβ",E (E = <1.5 to 2.5)
same,Log2 TE ADH1B,"ENSG00000196616, 5 replicates",−2.795
same,Log2 TE TOMM7,"ENSG00000196683, 5 replicates",1.126
same,change in translational profile of LAMB3 caused by TGFβ,"ENSG00000196878, Control vs. TGFβ",D (D = <1.0 to 1.5)
same,Log2 TE PCBP2,"ENSG00000197111, 5 replicates",1.293
same,change in translational profile of PCBP2 caused by TGFβ,"ENSG00000197111, Control vs. TGFβ",E (E = <1.5 to 2.5)
same,Log2 TE MAP3K5,"ENSG00000197442, 5 replicates",−2.0153
same,change in translational profile of MAP3K5 caused by TGFβ,"ENSG00000197442, Control vs. TGFβ",B (B = <−1.5 to −2.5)
same,Log2 TE RPS26,"ENSG00000197728, 5 replicates",1.09
same,Log2 TE RPL37A,"ENSG00000197756, 5 replicates",2.029
same,change in translational profile of RPL37A caused by TGFβ,"ENSG00000197756, Control vs. TGFβ",E (E = <1.5 to 2.5)
same,Log2 TE RPL12,"ENSG00000197958, 5 replicates",1.878
same,change in translational profile of RPL12 caused by TGFβ,"ENSG00000197958, Control vs. TGFβ",E (E = <1.5 to 2.5)
same,Log2 TE DNM3,"ENSG00000197959, 5 replicates",−1.161
same,Log2 TE RPS4X,"ENSG00000198034, 5 replicates",1.534
same,Log2 TE LPAR1,"ENSG00000198121, 5 replicates",−1.448
same,change in translational profile of LPAR1 caused by TGFβ,"ENSG00000198121, Control vs. TGFβ",C (C = <−1.0 to −1.5)
same,Log2 TE ZNF607,"ENSG00000198182, 5 replicates",−1.108
same,Log2 TE RPL23A,"ENSG00000198242, 5 replicates",1.395
same,change in translational profile of RPL23A caused by TGFβ,"ENSG00000198242, Control vs. TGFβ",E (E = <1.5 to 2.5)
same,Log2 TE TPM2,"ENSG00000198467, 5 replicates",1.077
same,change in translational profile of PLN caused by TGFβ,"ENSG00000198523, Control vs. TGFβ",F (F = >2.5)
same,Log2 TE RPL10A,"ENSG00000198755, 5 replicates",1.51
same,change in translational profile of RPL10A caused by TGFβ,"ENSG00000198755, Control vs. TGFβ",E (E = <1.5 to 2.5)
same,Log2 TE CES1,"ENSG00000198848, 5 replicates",1.084
same,change in translational profile of CES1 caused by TGFβ,"ENSG00000198848, Control vs. TGFβ",E (E = <1.5 to 2.5)
same,Log2 TE RPL39,"ENSG00000198918, 5 replicates",1.536
same,change in translational profile of RPL39 caused by TGFβ,"ENSG00000198918, Control vs. TGFβ",E (E = <1.5 to 2.5)
same,Log2 TE GPRASP1,"ENSG00000198932, 5 replicates",−1.239
same,Log2 TE RORB,"ENSG00000198963, 5 replicates",−1.766
same,Log2 TE CARD16,"ENSG00000204397, 5 replicates",−1.076
same,change in translational profile of CARD16 caused by TGFβ,"ENSG00000204397, Control vs. TGFβ",B (B = <−1.5 to −2.5)
same,Log2 TE MICA,"ENSG00000204520, 5 replicates",1.143
same,change in translational profile of MICA caused by TGFβ,"ENSG00000204520, Control vs. TGFβ",E (E = <1.5 to 2.5)
same,Log2 TE GNB2L1,"ENSG00000204628, 5 replicates",1.732
same,change in translational profile of GNB2L1 caused by TGFβ,"ENSG00000204628, Control vs. TGFβ",E (E = <1.5 to 2.5)
same,Log2 TE RPS29,"ENSG00000213741, 5 replicates",1.571
same,Log2 TE RPL17,"ENSG00000215472, 5 replicates",1.299
same,change in translational profile of RPL17 caused by TGFβ,"ENSG00000215472, Control vs. TGFβ",E (E = <1.5 to 2.5)
same,Log2 TE UBA52,"ENSG00000221983, 5 replicates",1.125
same,Log2 TE BTBD19,"ENSG00000222009, 5 replicates",1.524
same,Log2 TE RPL41,"ENSG00000229117, 5 replicates",1.474
same,change in translational profile of RPL41 caused by TGFβ,"ENSG00000229117, Control vs. TGFβ",E (E = <1.5 to 2.5)
same,Log2 TE RPS18,"ENSG00000231500, 5 replicates",2.003
same,Log2 TE C17orf108,"ENSG00000232859, 5 replicates",−1.329
same,Log2 TE RPS28,"ENSG00000233927, 5 replicates",1.937
same,Log2 TE ARPC1A,"ENSG00000241685, 5 replicates",1.288
same,change in translational profile of ARPC1A caused by TGFβ,"ENSG00000241685, Control vs. TGFβ",D (D = <1.0 to 1.5)
same,Log2 TE IFITM10,"ENSG00000244242, 5 replicates",−1.299
same,Log2 TE FMN1,"ENSG00000248905, 5 replicates",−1.906
same,Log2 TE CHCHD10,"ENSG00000250479, 5 replicates",2.519
same,change in translational profile of CHCHD10 caused by TGFβ,"ENSG00000250479, Control vs. TGFβ",F (F = >2.5)
same,Log2 TE SEPP1,"ENSG00000250722, 5 replicates",−1.035
same,Log2 TE EEF1G,"ENSG00000254772, 5 replicates",1.551
same,change in translational profile of EEF1G caused by TGFβ,"ENSG00000254772, Control vs. TGFβ",E (E = <1.5 to 2.5)
same,Log2 TE TEN1,"ENSG00000257949, 5 replicates",1.361
